The values below come from patent publication US10617664B2, “Brain derived PPARα ligands” (Rush University Medical Center, priority 2015, dated 2020).

What all share (type): cell-based, mouse
Data set [1] concerns AMPA-driven calcium influx. As to the kind of experiment: AMPA-driven calcium influx in transduced Ppara-null hippocampal neurons. As for the experimental part: Ppara-null hippocampal neurons were transduced with lentivirions containing GFP (vector), FL-Ppara, and Y464D-Ppara for 48 h followed by treatment with vehicle (DMSO) (FIG. 11A), OCT (FIG. 11B), HEX (FIG. 11C), HMB (FIG. 11D), and WY14643 (FIG. 11E) for 24 h. Then neurons were stained for phalloidin to measure spine density. FIG. 11F) A representative picture of dendrite with spines (Cyan color) used for counting area of spine heads. Area of spine heads (FIG. 11G) and number of spines (FIG. 11H) in 10 μm of dendrites. Results are mean±SEM of 5 neurons per group. ^ap<0.05 vs vector only; ^bp<0.05 vs FL-Ppara. AMPA-driven calcium influx was measured in OCT (red), HEX (green) and HMB (purple)-treated Ppara-null hippocampal neurons transduced with lentivirions containing FL-Ppara (FIG. 11I), Y314D-Ppara (FIG. 11J), Y464D-Ppara (FIG. 11K), and Y314D/Y464D-Ppara (FIG. 11L). All neurons were treated with 50 μM of NMDA receptor antagonist N20C to inhibit passive calcium flow through NMDA receptor. (FIG. 11M-P) Similarly NMDA-driven calcium influx was measured in the lentivius-infected Ppara-null hippocampal neurons in the presence of different endogenous ligands. In these cases, Naspm-HCl was treated to stop the passive flow of calcium currents through AMPA receptor. Results are mean of three independent experiments.

In data set [2] the test system is PPRE-driven luciferase activity. The data set can be described thus: PPRE-luciferase assay in Ppara-null hippocampal neurons transduced with Ppara constructs. As to the method:
(§1) Astrocytes plated at 60-70% confluence were transfected with tk-PPREx3-Luc, a PPRE-dependent luciferase reporter construct. After 24 h of transfection, cells were treated with different concentrations of HEX (FIG. 10A), OCT (FIG. 10B) and HMB (FIG. 10C) for 4 h followed by monitoring luciferase activity. Under similar experimental condition, MTT was performed to understand the effect of these ligands on cell viability (FIG. 10D, HEX; FIG. 10E, OCT; FIG. 10F, HMB). Results are mean±SD of three independent experiments. ^ap<0.001 vs. control. Ppara-null astrocytes were transduced with lentivirions containing empty vector (FIG. 10G), FL-Ppara (FIG. 10H), Y314D-Ppara (FIG. 10I), Y464D-Ppara (FIG. 10J), and Y314D/Y464D-Ppara (FIG. 10K) for 48 h followed by transfection with tk-PPREx3-Luc. After 24 h of transfection, cells were treated with different doses of HEX, OCT and HMB for 4 h followed by monitoring luciferase activity. PPRE luciferase activity was assayed in Ppara-null astrocytes transduced with lentivirions containing empty vector (FIG. 10L), FL-Ppara (FIG. 10M), Y314D-Ppara (FIG. 10N), Y464D-Ppara (FIG. 10O), and Y314D/Y464D-Ppara (FIG. 10P) after treatment with different doses of WY14643, fenofibrate, and clofibrate. PPRE luciferase activity was assayed in primary hippocampal neurons transduced with lentivirions containing empty vector (FIG. 10Q), FL-Ppara (FIG. 10R), Y314D-Ppara (FIG. 10S), Y464D-Ppara (FIG. 10T), and Y314D/Y464D-Ppara (FIG. 10U) after treatment with different doses of HEX, OCT and HMB. Results are mean±SD of three independent experiments. ^ap<0.001 vs. control.
(§2) Isolation of Mouse Hippocampal Neurons: Hippocampal neurons were isolated from fetuses (E18) of pregnant female Ppara-null and strain-matched WT littermate mice as described by us^6,13,35-36 with some modifications. Briefly, dissection and isolation procedures were performed in an ice-cold, sucrose buffer solution (sucrose 0.32 M, Tris 0.025 M; pH 7.4)^37. The skin and the skull were carefully removed from the brain by scissors followed by peeling off the meninges by a pair of fine tweezers. Next, a fine incision was made in the middle line around the circle of Willis and medial temporal lobe was opened up. Hippocampus was isolated as a thin slice of tissue located near the cortical edge of medial temporal lobe. Hippocampal tissues isolated from all fetal pups (n>10) were combined together and homogenized with 1 ml of trypsin for 5 minutes at 37° C. followed by neutralization of trypsin. The single cell suspension of hippocampal tissue was plated in the poly-D-lysine pre-coated 75 mm flask. Five min after plating, the supernatants were carefully removed and replaced with complete neurobasal media. The next day, 10 μM AraC was added to remove glial contamination in the neuronal culture. The pure cultures of hippocampal neurons were allowed to differentiate fully for 9-10 days before treatment^35,36,38.

Data set [3] relates to NR2A, GluR1 and CREB. The data set can be described thus: Immunoblot and immunofluorescence of synaptic molecules in Ppara-null hippocampal neurons. Particulars: 5 μM HEX, 5 μM OCT, 50 μM HMB. As for the experimental part:
(FIG. 17A) Immunoblot analyses followed by densitometric analyses of NR2A (FIG. 17B), GluR1 (FIG. 17C) and CREB (FIG. 17D) were performed in Ppara-null and WT hippocampal neurons treated with 5 μM HEX, 5 μM OCT and 50 μM HMB. Data are mean±SD of three different experiments. ^ap<0.05 versus WT-control. Immunocytochemical analyses of NR2A (FIG. 17E) and GluR1 (FIG. 17F) in WT and Ppara-null hippocampal neurons treated with HEX, OCT and HMB. Hippocampal neurons were transduced with lenti-GFP for 48 h followed by treatment with different ligands. Immunoblot analyses followed by relative densitometric analyses of CREB in Ppara-null hippocampal neurons transduced with lentivirions containing different Ppara constructs followed by treatment with HEX (FIG. 17G-H), OCT (FIG. 17I-J) and HMB (FIG. 17K-L). Bands were scanned and presented as relative to control (FIG. 17H, HEX; FIG. 17J, OCT; FIG. 17L, HMB). Data are mean±SD of three different experiments. ^ap<0.05 vs FLPpara control.
as §2
For whole-cell and tissue lysates, samples were homogenized in RIPA buffer containing protease and phosphatase inhibitors (Sigma), passed 10 times through a 26-gauge needle, rotated end over end for 30 min at 4° C., and centrifuged for 10 min at 18,000×g. The supernatant was aliquoted and stored at −80° C. until use. Protein concentrations were determined using a NanoDrop 2000 (Thermo Fisher), and 15-30 μg sample was heat-denatured and resolved on 10% or 12% polyacrylamide-SDS gels, transferred to 0.45 μm nitrocellulose membranes under semidry conditions (15V for 12 min). Membranes were blocked for 1 h with blocking buffer (Li-Cor), incubated with primary antibodies overnight at 4° C. under shaking conditions, washed, incubated with IR-dye-labeled secondary antibodies (1:17,000; Li-Cor) for 45 min at room temperature, washed, and visualized with the Odyssey Infrared Imaging System (Li-Cor). Blots were converted to grayscale and then binary, analyzed using Fiji, and normalized to appropriate loading controls.
Background: Immunoblotting shows a protein as a band on a membrane.

Data set [4] concerns astrocytes. As to the kind of experiment: MTT cell viability in PPRE-luciferase transfected astrocytes. Particulars: higher concentrations. As for the experimental part:
as §1

SMILES strings stand for the structures.

Take `CCCCCCCCCCCCCCCC(N)=O` [HEX, hexadecanamide]: the AMPA-mediated calcium influx entry in data set [1] (lenti-FL-Ppara) is recorded as “stimulated”; in data set [1] (lenti-Y314D-Ppara), “partially restore”; in data set [1] (lenti-Y314D/Y464D-Ppara) it was “remained unable to increase”; in data set [1] (lenti-Y464D-Ppara) it was “remained unable to increase”. Further, the PPRE-luciferase activity result in data set [2] (lenti-Y314D/Y464D-Ppara) and in data set [2] (lenti-Y464D-Ppara) was “completely abrogated” each time. Besides, the “expression of CREB” value in data set [3] is given as “not”. Also, the “expression of NR2A” value in data set [3] is “not”. In data set [4], the “cytotoxicity (MTT)” value was “significant level of cytotoxicity”.
As to `CCOC(=O)C(C)(C)C(C)O` (stereo not drawn) [HMB], the AMPA-mediated calcium influx entry in data set [1] (lenti-FL-Ppara) is listed as “stimulated”; in data set [1] (lenti-Y314D-Ppara), “partially restore”; in data set [1] (lenti-Y314D/Y464D-Ppara), “remained unable to increase”; in data set [1] (lenti-Y464D-Ppara), “remained unable to increase”. Moreover, the PPRE-luciferase activity entry in data set [2] (lenti-Y314D/Y464D-Ppara) and in data set [2] (lenti-Y464D-Ppara) was “completely abrogated” in each case. Besides, the “expression of CREB” value in data set [3] was “not”. In addition, the “expression of NR2A” value in data set [3] is “not”. Moreover, in data set [4], the “cytotoxicity (MTT)” value is given as “significant level of cytotoxicity”.
Regarding `CCCCCCCCC=CCCCCCCCC(N)=O` [OCT, 9-octadecenamide], the AMPA-mediated calcium influx result in data set [1] (lenti-FL-Ppara) was “stimulated”; in data set [1] (lenti-Y314D-Ppara), “partially restore”; in data set [1] (lenti-Y314D/Y464D-Ppara) it was “remained unable to increase”; in data set [1] (lenti-Y464D-Ppara), “remained unable to increase”. In addition, the PPRE-luciferase activity entry in data set [2] (lenti-Y314D/Y464D-Ppara) and in data set [2] (lenti-Y464D-Ppara) was “completely abrogated” throughout. Further, in data set [3], the “expression of CREB” value is on record as “not”. Besides, in data set [3], the “expression of NR2A” value was “not”. The “cytotoxicity (MTT)” value in data set [4] is “significant level of cytotoxicity”.
